Experimental findings from patent US20260028584A1, “METHOD FOR EVALUATING AGGREGATION-SUPPRESSING ACTIVITY OR AGGREGATION-PROMOTING ACTIVITY ON AGGREGATING PROTEIN USING ORGANOID, AND METHOD FOR PRODUCING ORGANOID” (KANEKA CORPORATION, priority 2023, published 2026) are described below.

For the test, the target named is T1, amyloid β protein (QD-Aβ / Aβ42) deposited on and/or in cerebral organoid (Homo sapiens, UniProt P05067).
T1 construct: To a reagent bottle of Aβ1-42 0.5 mg (manufactured by Peptide Institute, Inc.: Cat No. 4394v); purchased Peptide Institute, Inc. 4394v; host or cells: synthetic peptide, added to the culture of a cerebral organoid derived from human iPS cells (HPS08554)
T1 sequence (P05067 672-713): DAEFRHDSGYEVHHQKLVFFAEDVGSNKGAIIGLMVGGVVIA
The test is described as follows: Aβ deposition suppression on cerebral organoid with quantum dot-modified amyloid β (QD-Aβ), fluorescence image analysis. The note with it: rosmarinic acid 50 μM; QD-Aβ 30 nM, artificial Aβ 10 μM; human iPS cell-derived cerebral organoid; 24 hours at 37° C. Type of test: cell-based. Here is the method: An end of a tip for 1000 μL was cut with sterilized scissors, and the organoid grown to a diameter of 1 mm or larger prepared in Example 1 was sucked so as not to collapse, and transferred to a U-bottom 96-well plate. […]
The next day, the culture supernatant was completely removed so as not to suck the organoid, and after 150 μL of a fresh NbM medium was added, the cultured organoid was observed and photographed using a fluorescence microscope.
Using a fluorescent microscope (BZ-X800 manufactured by Keyence Corporation), the cultured organoid in Example 2 was photographed in a bright field at high resolution with an exposure time of 1/500 s to 1/2000 s, or at high sensitivity with an exposure time of 1/2000 s to 1/5000 s, using a Z stack with 20 μm intervals. […] Thereafter, in order to observe the deposition of quantum dot-modified amyloid β on the cultured organoid, red fluorescence was observed using a TRITC lens at high sensitivity with an exposure time of ¼ s to 1/8.5 s, and images were obtained according to the above procedure.
Each of the images obtained above was analyzed as follows. Specifically, the hybrid cell count function was used to read the organoid images used in the various tests, select the bright field, and then set the extraction selection to OFF. The threshold of the read bright-field images was set to 200, and the organoid area was calculated (organoid surface area). […]

As to `O=C(/C=C/c1ccc(O)c(O)c1)O[C@H](Cc1ccc(O)c(O)c1)C(=O)O` [rosmarinic acid, Rosmarinic acid], the “Aβ deposition suppression rate” value is listed as “less than 5.0%”.
